The values that follow come from US20030176500A1, “Medium chain fatty acids applicable as antimicrobial agents” (priority 2000, published 2003).

For this experiment, the system named is E. coli K88. As to the kind of experiment: Control of E. coli K88 growth in Brain Heart Infusion broth (OD600nm). The conditions noted are these: colistine 12 ppm, sodium salt of MCFA 1200 ppm; for OD600nm: pH 4.0, 37° C., MCFA values higher by intrinsic turbidity. The format is cell-based, Escherichia coli. How it is done:
Three samples of 100 ml of fermentation broth (Brain Heart Infusion) were equally inoculated with an overnight culture of E. coli K88 (pathogen in gastrointestinal tract of piglet) and further incubated at 37° C. The optical density at 600 nm (OD600nm)—which is proportional to the amount of E. coli cells present (FIG. 1)—was measured. As soon as an OD600nm of between 0.2 and 0.5 was obtained,
(1) nothing was added to the first sample,
(2) 12 ppm of colistine was added to the second sample and
(3) 1200 ppm of the sodium salt of MCFA (mixture containing 50% of fatty acid with 8 carbon atoms and 50% of fatty acid with 10 carbon atoms) was added to the third sample.
The samples were further incubated at 37° C. for 4 hours at pH 4.0. The OD600nm was measured evey hour. The samples were removed from the incubation after 4 hours, the pH was measured in order to register possible pH changes during incubation.

colistine: the OD600nm runs as follows: (2 hours after pH setting) 0.420; (3 hours after pH setting) 0.449; (4 hours after pH setting) 0.455. The “Difference in OD600nm” value (between 2 and 4 hours) was 0.035. For the setting “blank = 100”, the Growth % is 44%. The “growth of E. coli retarded” value (pH 4.0) worked out at 56%.
